{"source": "patent US6867214B1", "about": "“Quinazoline derivatives and pharmaceutical applications thereof” (Daiichi Suntory Pharma Co., Ltd., priority 1998, dated 2005)", "data": [{"target": "T1, Human heart chymase (Homo sapiens, UniProt P23946)", "T1 construct": "Human heart chymase was purified according to the method of Urata et al; from tissue; host or cells: human heart", "T1 sequence (P23946 22-247)": "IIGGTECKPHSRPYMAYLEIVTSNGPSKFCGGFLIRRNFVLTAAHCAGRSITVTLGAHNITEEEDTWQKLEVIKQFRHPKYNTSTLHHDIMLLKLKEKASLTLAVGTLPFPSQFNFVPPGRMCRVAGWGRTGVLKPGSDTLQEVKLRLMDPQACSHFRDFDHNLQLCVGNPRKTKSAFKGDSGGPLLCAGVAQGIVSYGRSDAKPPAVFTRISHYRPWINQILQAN", "experiment": "Measurement of chymase inhibitory activity", "format": "biochemical", "details": "purified human heart chymase, substrate Suc-Ala-Ala-Pro-Phe-MCA, pH 7.5, 30° C., 10 min preincubation", "method": "Human heart chymase was purified according to the method of Urata et al. (J. Biol. Chem., 1990, 265, 22348). The inhibitory activity of the quinazoline derivatives of the present invention with respect to chymase was measured in the following manner. That is, the purified enzyme solution was diluted to a suitable concentration with 0.1M tris-hydrochloride buffer (pH=7.5), 1M sodium chloride, and 0.01% TritonX-100 to In obtain an enzyme solution. A 10 mM dimethyl sulfoxide (hereinafter referred to as DMSO) solution of Suc-Ala-Ala-Pro-Phe-MCA (Peptide Institute) was diluted 20-fold at the time of use by 0.1M tris-hydrochlorate, 1M sodium chloride, and 0.01% TritonX-100 to obtain the substrate solution.\n75 μl of the enzyme solution warmed to 30° C. was mixed with 5 μl of DMSO solution of the test sample. The mixture was preincubated at 30° C. for 10 minutes. Next, 20 μl of a substrate solution warmed to 30° C. was mixed with the test sample-enzyme mixture and incubated at 30° c. After 10 minutes, 50 μl of 30% acetic acid was added to stop the enzymatic reaction. The amount of the AMC produced was quantified using a fluorescent photometer. At the same time, a blind test was carried out by adding, instead of the test sample solution, 5 μl of DMSO and performing the same reaction. […]", "units": {"IC50": "nM"}, "values": [{"smiles": "CC(C(=O)O)C(=O)Nc1cccc(S(=O)(=O)n2c(=O)[nH]c3cc(Cl)ccc3c2=O)c1", "note": "(centres unmarked) [Example 13, 2-{3-[(7-chloro-2,4(1H,3H)-quinazolinedion-3-yl)sulfonyl]phenylaminocarbonyl}propionic acid]", "IC50": 300}]}, {"test_system": "not given", "experiment": "not given", "details": "human, plasma, pH 7.2", "units": {"t1/2": "h"}, "values": [{"smiles": "CC(C(=O)O)C(=O)Nc1cccc(S(=O)(=O)n2c(=O)[nH]c3cc(Cl)ccc3c2=O)c1", "note": "(centres unmarked) [Example 13, 2-{3-[(7-chloro-2,4(1H,3H)-quinazolinedion-3-yl)sulfonyl]phenylaminocarbonyl}propionic acid]", "t1/2": 1.62}]}, {"test_system": "human chymase induced vascular permeability", "experiment": "Test of human chymase induced vascular permeability exacerbation reaction", "format": "in vivo, Wister male rats", "details": "10 mg/kg orally, 30 minutes before intracutaneous human chymase (20 mU), rat back skin, Evans Blue", "method": "Wister male rats (body weight 200 to 220 g, Charles River Japan) were used. In the backs of the rats from which the hair had been shaved off, 100 μl (20 mU: 1U being amount of enzyme for producing 1 nmol of AMC in 1 minute from Suc-Ala-Ala-Pro-Phe-MCA at pH7.5 and 30° C.) of a solution of the human chymase enzyme solution purified in evaluation Example 1 diluted 100-fold by PBS (phosphate buffered saline) was injected intracutaneously, then immediately thereafter a 0.5% (w/w) Evans Blue solution was administered from the tail artery. After 30 minutes, the rats were sacrificed by draining their blood under anesthesia with ether and the amount of dye leaking out to the back skin was measured. The region of the skin where the dye leaked out was cut off and 1.0 ml of 1N KOH solution was added and the resultant mixture was allowed to stand at 37° C. overnight. Next, 4 ml of an acetone-0.6N phosphoric acid (13:5) mixture was added to extract the dye. The absorbance at 650 nm of the supernatant was measured. […]\nNext, 10 mg/kg of the compound of Example 18 was orally administered. 30 minutes later, 100 μl (20 mU) of human chymase the same as the non-drug administered group was injected intracutaneously and the amount of dye leaked out similarly measured. The rate of suppression of the amount of dye leakage due to the compound was calculated according to the following calculation formula. […]", "units": {"Rate of suppression of amount of leakage of dye": "%"}, "values": [{"smiles": "Nc1cc(S(=O)(=O)n2c(=O)[nH]c3cc(Cl)ccc3c2=O)ccc1C(=O)[O-].[Na+]", "note": "[Example 18, 4-[(7-chloro-2,4(1H,3H)-quinazolinedion-3-yl)sulfonyl]anthranilic acid monosodium salt]", "Rate of suppression of amount of leakage of dye": 64}]}, {"test_system": "not listed separately", "experiment": "Test of stability in human plasma", "details": "pH 7.2", "units": {"half-life at 10 µM": "h"}, "procedure": "Human plasma was diluted two-fold with 50 mM sodium phosphate buffer (pH=7.2) for use as the test plasma solution. The test sample was made a DMSO solution of 1 mM concentration.\n198 μl of the above two-fold diluted plasma solution warmed to 37° C. was added to 2 μl of the test sample DMSO solution and the resultant mixture was stirred and incubated at 37° C. After 0, 5, and 15 minutes, 800 μl of acetonitrile was mixed with the test sample-plasma mixture to remove the protein, then a centrifugation operation (12,000 rpm, 1 minute) was carried out and the supernatant obtained. This was diluted two-fold with distilled water and measured for of the test sample by HPLC analysis.\nFor the rate of recovery from the plasma, the rates of recovery at different times were calculated based on a calibration line of the test sample in a DMSO standard solution. The half-life (t1/2) in plasma was calculated by exponential recurrence analysis from the rates of recovery of these different times.", "values": [{"smiles": "O=C(O)C1Oc2ccc(S(=O)(=O)n3c(=O)[nH]c4cc(Cl)ccc4c3=O)cc2NC1=O", "note": "(racemic) [Example 29, (±)-6-[(7-chloro-2,4(1H,3H)-quinazolinedion-3-yl)sulfonyl]-3-oxo-1,4-benzoxazine-2-carboxylic acid]", "half-life at 10 µM": "> 4"}, {"smiles": "O=c1[nH]c2cc(Cl)ccc2c(=O)n1S(=O)(=O)c1cccc(O)c1", "note": "[Example 1, 7-chloro-3-(3-hydroxybenzenesulfonyl)-2,4(1H,3H)-quinazolinedione]", "half-life at 10 µM": 1.3}, {"smiles": "Nc1ccccc1S(=O)(=O)n1c(=O)[nH]c2cc(Cl)ccc2c1=O", "note": "[Example 2]", "half-life at 10 µM": 2.92}, {"smiles": "Nc1cc(S(=O)(=O)n2c(=O)[nH]c3cc(Cl)ccc3c2=O)ccc1Cl", "note": "[Example 8, 3-(3-amino-4-chlorobenzenesulfonyl)-7-chloro-2,4(1H,3H)-quinazolinedione]", "half-life at 10 µM": 0.483}, {"smiles": "Cc1ccc(S(=O)(=O)n2c(=O)[nH]c3cc(Cl)ccc3c2=O)cc1N", "note": "[Example 10, 3-(3-amino-4-methylbenzenesulfonyl)-7-chloro-2,4(1H,3H)-quinazolinedione]", "half-life at 10 µM": 2.78}, {"smiles": "Nc1cccc(S(=O)(=O)n2c(=O)[nH]c3cc(Cl)ccc3c2=O)c1", "note": "[Example 12, 3-(3-aminobenzenesulfonyl)-7-chloro-2,4(1H,3H)-quinazolinedione]", "half-life at 10 µM": 4.15}, {"smiles": "O=C([O-])c1ccc(S(=O)(=O)n2c(=O)[nH]c3cc(Cl)ccc3c2=O)cc1O.[Na+]", "note": "[Example 16, 4-[(7-chloro-2,4(1H,3H)-quinazolinedion-3-yl)sulfonyl]salicylic acid monosodium salt]", "half-life at 10 µM": "> 4"}, {"smiles": "Nc1cc(S(=O)(=O)n2c(=O)[nH]c3cc(Cl)ccc3c2=O)ccc1C(=O)O", "note": "[Example 17, 4-[(7-chloro-2,4(1H,3H)-quinazolinedion-3-yl)sulfonyl]anthranilic acid]", "half-life at 10 µM": 4.33}, {"smiles": "Nc1cc(S(=O)(=O)n2c(=O)[nH]c3cc(Cl)ccc3c2=O)ccc1C(=O)[O-].[Na+]", "note": "[Example 18, 4-[(7-chloro-2,4(1H,3H)-quinazolinedion-3-yl)sulfonyl]anthranilic acid monosodium salt]", "half-life at 10 µM": 1.72}, {"smiles": "COc1ccc(S(=O)(=O)n2c(=O)[nH]c3cc(Cl)ccc3c2=O)cc1NC(C)=O", "note": "[Example 22, 3-(3-acetamide-4-methoxybenzenesulfonyl)-7-chloro-2,4(1H,3H)-quinazolinedione]", "half-life at 10 µM": 1.73}, {"smiles": "COc1ccc(S(=O)(=O)n2c(=O)[nH]c3cc(Cl)ccc3c2=O)cc1NS(C)(=O)=O", "note": "[Example 24, 7-chloro-3-(4-methoxy-3-methylsulfonylaminobenzenesulfonyl)-2,4(1H,3H)-quinazolinedione]", "half-life at 10 µM": 1.32}, {"smiles": "COc1ccc2c(=O)n(S(=O)(=O)c3ccc(C(=O)O)c(N)c3)c(=O)[nH]c2c1", "note": "[Example 27, 4-[(7-methoxy-2,4(1H,3H)-quinazolinedion-3-yl)sulfonyl]anthranilic acid]", "half-life at 10 µM": 4.38}, {"smiles": "Nc1cc(S(=O)(=O)n2c(=O)[nH]c3ccc(Cl)cc3c2=O)ccc1C(=O)O", "note": "[Example 32, 4-[(6-chloro-2,4(1H,3H)-quinazolinedion-3-yl)sulfonyl]anthranilic acid]", "half-life at 10 µM": 1.23}, {"smiles": "CS(=O)(=O)O.Nc1cccc(S(=O)(=O)n2c(=O)[nH]c3cc(Cl)ccc3c2=O)c1", "note": "[Example 34, 3-(3-aminobenzenesulfonyl)-7-chloro-2,4-(1H,3H)quinazolinedion methanesulfonic acid salt]", "half-life at 10 µM": 11.8}]}]}
